# Target: 2G12
# Experiment: Binding curve and KD determination of 2G12-glycopeptide interaction (radiolabeled glycopeptide, protein G magnetic bead capture, scintillation counting)
# Description: The resulting mRNAs were purified by denaturing PAGE or MEGAclear kit (Ambion), and 1 μM RNA was used in PURE system translation (reaction volume of translation varied). Typically, 25 μL of translated reaction was diluted with 100 μL of binding buffer (50 mM Tris-HCl, pH 7.8, 300 mM NaCl, 5 mM β-mercaptoethanol) and 25 μL of Ni-NTA agarose suspension (Qiagen), and tumbled at room temperature for 1 h. The resins were transferred to 0.22 μm spin-filter rinsing with 100 μL of bind buffer, and washed with 3×200 μL of bind buffer and 2×200 μL of wash buffer (50 mM Tris-HCl, pH 7.8, 5 mM β-mercaptoethanol). The bound peptides were eluted with 2×25 μL of 0.1% TFA. The eluted peptides were analyzed by MALDI-TOF MS, using α-Cyano-4-hydroxycinnamic acid matrix (Sigma), with or without desalting with ZipTip C18 resin (Millipore). For calibration of MALDI-TOF-MS, at least two of the following standards, bovine insulin, E. coli thioredoxin and/or horse apomyoglobin were used. To quantitate peptide yields, the radioactivities were measured by liquid scintillation counting. For the click reaction, the translated and purified peptides were mixed with 0.1% (v/v) Triton X-100, and then dialyzed against H2O containing 0.1% (v/v) Triton X-100 using Slide-A-Lyzer MINI Dialysis Devices, 3.5K MWCO (Thermo Scientific) overnight to desalt. After dialysis, the peptides were divided into two portions: one was glycosylated via the click reaction, while the other was saved as a non-glycosylated peptide control. […] The glycosylated peptide (<4 pmol) was incubated with 100 nM 2G12 in selection buffer (40 μL) at room temp. The solution was then tumbled 30 min with 0.12 mg of equilibrated Dynabeads Protein G to capture 2G12-glycopeptide complex. Beads were then washed with 3×40 μL of selection buffer and resuspended in 10 μL of selection buffer. The resuspended beads were heated at 70° C. for 30 min to denature 2G12 and elute glycopeptides, chilled on ice for 5 min, and tumbled at room temperature for 10 min. The magnetically isolated supernatant was recovered and the beads were rinsed with 10 μL of selection buffer.
# Then, the solution was added to 0.12 mg of pre-equilibrated Dynabeads Protein G and tumbled at room temperature for 30 min. The supernatant was removed and the beads were washed with 3×40 μL of selection buffer. The radioactivities of the supernatant and wash solutions were measured by liquid scintillation counting as unbound fractions. […] The beads were resuspended in 40 μL of selection buffer, heated at 70° C. for 30 min to elute the bound glycopeptides, chilled on ice for 5 min, and tumbled at room temperature for 10 min. The supernatant was removed, and the beads were washed with 40 μL of selection buffer and resuspended in 40 μL of selection buffer. The radioactivities of these solutions and suspensions were measured by liquid scintillation counting separately and the values were combined as apparent bound fractions. […] All experiments were done at least in triplicate. KDs were calculated as described in the footnote of Table 4 (below).
Structure (SMILES),"Kd (Table 4, ribosomally translated radiolabeled glycopeptide with His6/FLAG tag, room temperature, fit Fbound=(Fmax[2G12])/(KD+[2G12]), error = standard error of fit) [pM]","Fmax [%] (Table 6 mutational analysis, radioactive bead binding assay)","Kd (Table 6 mutational analysis, radioactive bead binding assay, ribosomally translated) [pM]","binding to 2G12 after truncation (in words) (truncated clones, Table 6)"
"CC[C@H](C)[C@H](NC(=O)[C@H](CC(=O)O)NC(=O)[C@@H]1CCCN1C(=O)[C@H](C)NC(=O)[C@H](C)NC(=O)[C@H](CO)NC(=O)[C@@H](NC(=O)[C@@H]1CCCN1C(=O)[C@H](Cc1c[nH]cn1)NC(=O)[C@H](CCc1cn(C2CCC(OC3O[C@H](CO[C@H]4O[C@H](CO[C@H]5O[C@H](CO)[C@@H](O)[C@H](O)[C@@H]5O[C@H]5O[C@H](CO)[C@@H](O)[C@H](O)[C@@H]5O)[C@@H](O)[C@H](O[C@H]5O[C@H](CO)[C@@H](O)[C@H](O)[C@@H]5O[C@H]5O[C@H](CO)[C@@H](O)[C@H](O)[C@@H]5O)[C@@H]4O)[C@@H](O)[C@H](O[C@H]4O[C@H](CO)[C@@H](O)[C@H](O)[C@@H]4O[C@H]4O[C@H](CO)[C@@H](O)[C@H](O)[C@@H]4O[C@H]4O[C@H](CO)[C@@H](O)[C@H](O)[C@@H]4O)[C@@H]3O)CC2)nn1)NC(=O)[C@H](C)NC(=O)[C@H](Cc1c[nH]cn1)NC(=O)[C@H](Cc1ccccc1)NC(=O)[C@H](Cc1ccc(O)cc1)NC(=O)[C@H](Cc1c[nH]cn1)NC(=O)[C@H](C)NC(=O)[C@H](CO)NC(=O)[C@H](CCCNC(=N)N)NC(=O)[C@H](CO)NC(=O)[C@H](CC(C)C)NC(=O)[C@H](CCc1cn(C2CCC(OC3O[C@H](CO[C@H]4O[C@H](CO[C@H]5O[C@H](CO)[C@@H](O)[C@H](O)[C@@H]5O[C@H]5O[C@H](CO)[C@@H](O)[C@H](O)[C@@H]5O)[C@@H](O)[C@H](O[C@H]5O[C@H](CO)[C@@H](O)[C@H](O)[C@@H]5O[C@H]5O[C@H](CO)[C@@H](O)[C@H](O)[C@@H]5O)[C@@H]4O)[C@@H](O)[C@H](O[C@H]4O[C@H](CO)[C@@H](O)[C@H](O)[C@@H]4O[C@H]4O[C@H](CO)[C@@H](O)[C@H](O)[C@@H]4O[C@H]4O[C@H](CO)[C@@H](O)[C@H](O)[C@@H]4O)[C@@H]3O)CC2)nn1)NC(=O)[C@H](CC(C)C)NC(=O)[C@H](Cc1ccccc1)NC(=O)[C@H](C)NC(=O)[C@@H]1CCCN1C(=O)[C@H](CO)NC(=O)[C@@H]1CCCN1C(=O)[C@H](CS)NC(=O)[C@H](C)NC(=O)[C@@H](NC(=O)[C@H](CCC(N)=O)NC(=O)[C@H](CCc1cn(C2CCC(OC3O[C@H](CO[C@H]4O[C@H](CO[C@H]5O[C@H](CO)[C@@H](O)[C@H](O)[C@@H]5O[C@H]5O[C@H](CO)[C@@H](O)[C@H](O)[C@@H]5O)[C@@H](O)[C@H](O[C@H]5O[C@H](CO)[C@@H](O)[C@H](O)[C@@H]5O[C@H]5O[C@H](CO)[C@@H](O)[C@H](O)[C@@H]5O)[C@@H]4O)[C@@H](O)[C@H](O[C@H]4O[C@H](CO)[C@@H](O)[C@H](O)[C@@H]4O[C@H]4O[C@H](CO)[C@@H](O)[C@H](O)[C@@H]4O[C@H]4O[C@H](CO)[C@@H](O)[C@H](O)[C@@H]4O)[C@@H]3O)CC2)nn1)NC=O)[C@@H](C)O)[C@@H](C)O)C(=O)N[C@@H](CO)C(=O)NCC(=O)N[C@@H](CO)C(=O)NCC(=O)N[C@@H](CO)C(=O)N[C@@H](CC(C)C)C(=O)NCC(=O)N[C@@H](Cc1c[nH]cn1)C(=O)N[C@@H](Cc1c[nH]cn1)C(=O)N[C@@H](Cc1c[nH]cn1)C(=O)N[C@@H](Cc1c[nH]cn1)C(=O)N[C@@H](Cc1c[nH]cn1)C(=O)N[C@@H](Cc1c[nH]cn1)C(=O)N[C@@H](CCCNC(=N)N)C(=O)N[C@@H](CC(=O)O)C(=O)N[C@@H](Cc1ccc(O)cc1)C(=O)N[C@@H](CCCCN)C(=O)N[C@@H](CC(=O)O)C(=O)N[C@@H](CC(=O)O)C(=O)N[C@@H](CC(=O)O)C(=O)N[C@@H](CC(=O)O)C(=O)N[C@@H](CCCCN)C(=O)O (stereo partly shown) [Clone 6E, XQTACPSPAFLXLSRSAHYFHAXHPTSAAPDIS]",> 128000,,,
"CC[C@H](C)[C@H](NC(=O)[C@H](CCCNC(=N)N)NC(=O)[C@H](Cc1c[nH]cn1)NC(=O)[C@H](Cc1ccccc1)NC(=O)[C@H](CC(C)C)NC(=O)[C@H](C)NC(=O)[C@H](CC(C)C)NC(=O)[C@H](C)NC(=O)[C@H](Cc1ccc(O)cc1)NC(=O)[C@H](CCc1cn(C2CCC(OC3O[C@H](CO[C@H]4O[C@H](CO[C@H]5O[C@H](CO)[C@@H](O)[C@H](O)[C@@H]5O[C@H]5O[C@H](CO)[C@@H](O)[C@H](O)[C@@H]5O)[C@@H](O)[C@H](O[C@H]5O[C@H](CO)[C@@H](O)[C@H](O)[C@@H]5O[C@H]5O[C@H](CO)[C@@H](O)[C@H](O)[C@@H]5O)[C@@H]4O)[C@@H](O)[C@H](O[C@H]4O[C@H](CO)[C@@H](O)[C@H](O)[C@@H]4O[C@H]4O[C@H](CO)[C@@H](O)[C@H](O)[C@@H]4O[C@H]4O[C@H](CO)[C@@H](O)[C@H](O)[C@@H]4O)[C@@H]3O)CC2)nn1)NC(=O)[C@H](CC(=O)O)NC(=O)[C@@H](NC(=O)[C@@H](NC(=O)[C@H](CCC(N)=O)NC(=O)[C@H](CCc1cn(C2CCC(OC3O[C@H](CO[C@H]4O[C@H](CO[C@H]5O[C@H](CO)[C@@H](O)[C@H](O)[C@@H]5O[C@H]5O[C@H](CO)[C@@H](O)[C@H](O)[C@@H]5O)[C@@H](O)[C@H](O[C@H]5O[C@H](CO)[C@@H](O)[C@H](O)[C@@H]5O[C@H]5O[C@H](CO)[C@@H](O)[C@H](O)[C@@H]5O)[C@@H]4O)[C@@H](O)[C@H](O[C@H]4O[C@H](CO)[C@@H](O)[C@H](O)[C@@H]4O[C@H]4O[C@H](CO)[C@@H](O)[C@H](O)[C@@H]4O[C@H]4O[C@H](CO)[C@@H](O)[C@H](O)[C@@H]4O)[C@@H]3O)CC2)nn1)NC(=O)[C@H](CCCCN)NC(=O)[C@H](CC(C)C)NC(=O)[C@H](C)NC(=O)[C@H](C)NC(=O)[C@H](CCc1cn(C2CCC(OC3O[C@H](CO[C@H]4O[C@H](CO[C@H]5O[C@H](CO)[C@@H](O)[C@H](O)[C@@H]5O[C@H]5O[C@H](CO)[C@@H](O)[C@H](O)[C@@H]5O)[C@@H](O)[C@H](O[C@H]5O[C@H](CO)[C@@H](O)[C@H](O)[C@@H]5O[C@H]5O[C@H](CO)[C@@H](O)[C@H](O)[C@@H]5O)[C@@H]4O)[C@@H](O)[C@H](O[C@H]4O[C@H](CO)[C@@H](O)[C@H](O)[C@@H]4O[C@H]4O[C@H](CO)[C@@H](O)[C@H](O)[C@@H]4O[C@H]4O[C@H](CO)[C@@H](O)[C@H](O)[C@@H]4O)[C@@H]3O)CC2)nn1)NC(=O)[C@H](CCc1cn(C2CCC(OC3O[C@H](CO[C@H]4O[C@H](CO[C@H]5O[C@H](CO)[C@@H](O)[C@H](O)[C@@H]5O[C@H]5O[C@H](CO)[C@@H](O)[C@H](O)[C@@H]5O)[C@@H](O)[C@H](O[C@H]5O[C@H](CO)[C@@H](O)[C@H](O)[C@@H]5O[C@H]5O[C@H](CO)[C@@H](O)[C@H](O)[C@@H]5O)[C@@H]4O)[C@@H](O)[C@H](O[C@H]4O[C@H](CO)[C@@H](O)[C@H](O)[C@@H]4O[C@H]4O[C@H](CO)[C@@H](O)[C@H](O)[C@@H]4O[C@H]4O[C@H](CO)[C@@H](O)[C@H](O)[C@@H]4O)[C@@H]3O)CC2)nn1)NC=O)C(C)C)[C@@H](C)O)C(=O)N[C@@H](CC(C)C)C(=O)NCC(=O)N[C@@H](CO)C(=O)NCC(=O)N[C@@H](CO)C(=O)N[C@@H](CC(C)C)C(=O)NCC(=O)N[C@@H](Cc1c[nH]cn1)C(=O)N[C@@H](Cc1c[nH]cn1)C(=O)N[C@@H](Cc1c[nH]cn1)C(=O)N[C@@H](Cc1c[nH]cn1)C(=O)N[C@@H](Cc1c[nH]cn1)C(=O)N[C@@H](Cc1c[nH]cn1)C(=O)N[C@@H](CCCNC(=N)N)C(=O)N[C@@H](CC(=O)O)C(=O)N[C@@H](Cc1ccc(O)cc1)C(=O)N[C@@H](CCCCN)C(=O)N[C@@H](CC(=O)O)C(=O)N[C@@H](CC(=O)O)C(=O)N[C@@H](CC(=O)O)C(=O)N[C@@H](CC(=O)O)C(=O)N[C@@H](CCCCN)C(=O)O (stereo partly shown) [Clone 10F2-Δ11, XXAALKXQVTDXYALALFHRIL]",,70,890,tight binding

# Reference: patent US11345912B2, “Directed evolution of multivalent glycopeptides that tightly bind to target proteins” (Brandeis University, priority 2013, dated 2022)
